PubChem BioAssay (NCI)
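The compound was tested at five concentrations on cells cultured in 96-well plates, with a 48-hour exposure period. The concentration for full growth arrest is given as TGI.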

Columns and labels:
Assay in all cases: NCI tumour cell line growth inhibition, 48 h
[1] = tested on: XF 498 CNS
[2] = tested on: DLD-1 colon
[3] = tested on: DMS 273 small cell lung
[4] = tested on: SNB-78 CNS
[5] = tested on: HOP-18 NSCLC
[6] = tested on: KM20L2 colon
[7] = tested on: MOLT-4 leukemia
[8] = tested on: LXFL 529 NSCLC
[9] = tested on: M19-MEL melanoma
[10] = tested on: DMS 114 small cell lung
[11] = tested on: SR leukemia
[12] = tested on: T-47D breast
[13] = tested on: PC-3 prostate
[14] = tested on: RXF-631 renal

SMILES	TGI [1] [µM]	TGI [2] [µM]	TGI [3] [µM]	TGI [4] [µM]	TGI [5] [µM]	TGI [6] [µM]	TGI [7] [µM]	TGI [8] [µM]	TGI [9] [µM]	TGI [10] [µM]	TGI [11] [µM]	TGI [12] [µM]	TGI [13] [µM]	TGI [14] [µM]
COc1cc(CCCC(O)COc2cccc3c2C2(O)CCCCCC32)cc(OC)c1 (configuration not stated)	35.8	36.6	34.8	43.3	33.1	28.1	48.2	33.5	32.7	23.4				
CSc1ccc(-c2cc(-c3nc4ccccc4[nH]3)nc3[nH]c(-c4nc5ccccc5[nH]4)cc(=O)c23)cc1							> 100				> 100	> 100	> 100	
C(/C=N/NC1=NCCCN1)=N\NC1=NCCCN1							> 100				> 100	> 100	> 100	
O=c1c2c3c(sc2nc2n1N=CN(c1ccc(Cl)cc1)C2)CCCC3							> 100				51.1	> 100	> 100	
COC(=O)C(Cc1c[nH]c2ccccc12)NP(=O)(O)OCC1OC(n2cc(F)c(=O)[nH]c2=O)CC1O (configuration not stated)							> 100				> 51.9	> 100	> 100	
COC(=O)/C(C#N)=C(\Nc1ccccc1)N1CCCCC1							> 100				> 100	> 100	> 100	
COc1cc(C2S/C(=C/c3ccccc3)C(=O)N2c2ccc([N+](=O)[O-])cc2)cc(OC)c1OC (configuration not stated)							> 100				> 100	> 100	> 100	
CSC(=N)N1N=C2c3ccccc3CC[C@@H]2[C@@H]1c1ccccc1	30.6	31.7	28.5		47.8	25.6	35.8	24.2	29.4	28.7	30.9			
CC(C)N1CCCOC(c2ccc([N+](=O)[O-])cc2)O1 (configuration not stated)							> 100				> 100	> 100	> 100	
N#CC1=C(N)Nc2nc3ccccc3n2C1c1ccccc1 (configuration not stated)							> 100				> 100	63.1	> 100	
O=C(Nc1ccccc1)C(=O)C(C(=O)c1ccccc1)C(c1ccccc1)c1ccccc1 (configuration not stated)							> 10				> 10	> 10	> 10	
COc1ccc(NC(C)=O)cc1N1C(=O)/C(=C\c2cc(OC)c(OC)c(OC)c2)S(=O)(=O)C1c1ccccc1 (configuration not stated)							> 100				> 100	> 100	> 100	
CC1=[N+]([O-])C(C)(C)N(O)C1(C)C							> 100				> 100	> 100	> 100	
CNC(=O)CN(CC(N)=O)C(=O)NC	> 100	> 100	> 100	> 100		> 100	> 100	> 100	> 100		> 100			> 100
COc1cc(/C=C2\N=C(c3ccccc3)N(/N=C/c3cc4cc(C)ccc4nc3Cl)C2=O)cc(OC)c1OC							51				57.4	63.3	54.7	
COc1cc(/C=N/NC2=NCCCN2)ccc1O							> 100				> 100	> 100	> 100	
CCOC(=O)c1c(-c2ccccc2)[nH]c2ccc(Cl)cc2c1=O							> 100				> 100	62	> 100	
C=C(Cl)C(Br)(CBr)CCC(Br)C(C)(C)Br (configuration not stated)							> 10				> 1	> 1	> 10	
O=c1[nH]c(=O)n(C2CC(O)C(CO)O2)c2nc3ccc4ccccc4c3nc12 (configuration not stated)							54.3				> 100	> 100	> 100	
CC(C)(CCCCC(C)(C)NCC1COc2ccccc2O1)NCC1COc2ccccc2O1 (configuration not stated)							> 10				> 10	> 10	> 10	
CCOC(=O)C1C(c2ccc([N+](=O)[O-])cc2)NC(c2ccc([N+](=O)[O-])cc2)C(C(=O)OC)S1(=O)=O (configuration not stated)	> 100	> 100	> 100	> 100	> 100	> 100	> 100	> 100	> 100	> 100	> 100			
CNC(=S)NNC1=NCCCCN1							> 100				> 100	> 100	> 100	
O=C1CCSc2c(cnc3ccccc23)N1							> 100				> 100	> 100	> 100	
CCCCCCCCCCCCNC1(C)CNCCCNCCNCCCNC1	3.35	3.07	1.6		3.07	3.1	3.05	3.05	3.13		3.58			3.57
